≈ marks a conversion by molar mass, not a printed value. Read-outs that look alike come from different tables or passages of the source. Marks after values point to notes of the source that are not given here.
Assays:
C. glabrata 61L = experiment: In vitro antifungal activity, microbroth dilution (MIC); assay type: cell-based; conditions: for MIC: Nakaseomyces glabratus, 24 h
Method: (§1) The in vitro antifungal screening results of synthesized compounds was evaluated against three fungal strains: C. parapsilosis ATCC 22019, C. utilis 84, and C. glabrata 61L are summarized in Table 1.
(§2) The in vitro antifungal activity of the target compounds was measured by means of the minimal inhibitory concentrations (MIC) with fluconazole as the control drug. Procedure was carried out by the microbroth dilution method in 96-well plates according to the recommendations of the Clinical and Laboratory Standards Institute. The detailed information was reported previously. The investigated pathogenic species included C. parapsilosis ATCC 22019, C. utilis 84 and C. glabrata 61. The sensitivity was evaluated visually, after the incubation at 35 °C for 24 h and the value was compared with the growth density in the reference culture without the sample. Each test was conducted in triplicate.

[1] = test system: C. parapsilosis ATCC 22019; experiment: as above; assay type: cell-based; conditions: for advantage over fluconazole: MIC ratio; for MIC: Lodderomyces parapsilosis
Method: as §1, §2

C. utilis 84 = experiment: as above; assay type: cell-based
Method: as §1, §2

[2] = Equilibrium (thermodynamic) solubility, shake-flask method; assay type: physicochemical; conditions: for Solubility S × 10^2 / Solubility x × 10^3 / Solubility S × 10^4 / Solubility x × 10^5 / Solubility S × 10^5 / Solubility x × 10^6 / Solubility S × 10^3: amorphous state; for solubility at 2 days: 25 °C, organic solvent or mixture, thermodynamic from solid, 1-octanol, text values match 298.15 K, read-out: Solubility S in the alcohol (1-octanol)
Excerpt: The experimental solubility values of hybrids in the selected solvents within the temperature range of 293.15–313.15 K expressed in molarity are summarized in Table 2. The comparative analysis of the reference values of the solubility of compounds I–III at the standard temperature of 298.15 K is given as a histogram in Figure 3.
Shake-flask method as “gold standard” was used for determination thermodynamic solubility synthesized compounds in buffer solutions (pH 2.0 and 7.4) and 1-octanol in the temperature range of 293.15–313.15 K with a step of 5 degrees at atmospheric pressure. Excessive amounts of compound were added to glass vials c 12 mL of selected solvent. The heterogeneous system is closed with a lid and vigorously stirred at the selected temperature in an air thermostat with a stirring device until the solubility equilibrium has been reached. The time required for establishing a constant value of the solution concentration was determined from the solubility kinetic dependences and averaged 2 days. The equilibrated solutions were first survived to aim sedimentation of solid phase during 10 h, then centrifuged at 20,000 rpm for 30 min at specific temperatures, and then quickly filtered using a syringe equipped with a hydrophilic filter Millex-GV 0.22 µm (Ireland). Concentration of saturated solution was measured using spectrophotometer Cary-50 (Varian, USA) with an accuracy of 2–4%. The absorbances of compounds studied were measured at wavelengths 332 and 334 nm in buffer solutions and 1-octanol, respectively. If necessary, an aliquot was diluted with an appropriate solvent. The final pH of the saturated buffers was monitored. The solubility of compounds in each solvent was determined by repeating the procedure three times.
Mole fraction concentration was calculated from solubility value S expressed in mol∙L^−1 using Equation (10):(10) x=M2S/S(M2−M1)+1000ρ, where M1 and M2 are the molar masses of solute and solvent, respectively, and ρ (g∙cm^−3) is the density of the pure solvents. The mole fraction solubilities for buffer solutions were calculated taking into account the buffer compositions. The used values of densities are given in Table S6 in Supplementary Material.

O=c1c2sc(=S)n(-c3ccc(Cl)cc3)c2ncn1CCCN1CCN(CC(O)(Cn2cncn2)c2ccc(F)cc2F)CC1 (stereo not shown) [III, 6-[3-[4-[2-(2,4-difluorophenyl)-2-hydroxy-3-(1H-1,2,4-triazol-1-yl)propyl]-1-piperazinyl]propyl]-2,3-dihydro-3-(4-chlorophenyl)-2-thioxo-thiazolo[4,5-d]pyrimidin-7(6H)-one]
MIC relative to the reference value (fluconazole) (C. glabrata 61L; C. glabrata 61L): four times less | MIC (C. glabrata 61L; C. glabrata 61L, 35 °C, read-out: MIC): 2 µg/mL (≈ 3.03 µM) | advantage over fluconazole ([1]; C. parapsilosis ATCC 22019): 8 fold | MIC ([1]; ATCC22019, C. parapsilosis ATCC 22019, 35 °C, 24 h, read-out: MIC): 0.25 µg/mL (≈ 0.379 µM) | activity relative to fluconazole (C. utilis 84; C. utilis 84): comparable | MIC (C. utilis 84; Williopsis jadinii, C. utilis 84, 35 °C, 24 h, read-out: MIC): 2 µg/mL (≈ 3.03 µM) | Solubility S × 10^2 ([2]; 1-Octanol, 293.15 K): 1.1196 mol∙L^−1 (printed as S × 10^2) | Solubility x × 10^3 ([2]; 1-Octanol, 293.15 K): 1.7767 mol. frac. (printed as x × 10^ | Solubility S × 10^2 ([2]; 1-Octanol, 298.15 K): 1.2269 mol∙L^−1 (printed as S × 10^2) | Solubility x × 10^3 ([2]; 1-Octanol, 298.15 K): 1.9566 mol. frac. (printed as x × 10^ | Solubility S × 10^2 ([2]; 1-Octanol, 303.15 K): 1.3464 mol∙L^−1 (printed as S × 10^2) | Solubility x × 10^3 ([2]; 1-Octanol, 303.15 K): 2.1577 mol. frac. (printed as x × 10^ | Solubility S × 10^2 ([2]; 1-Octanol, 308.15 K): 1.4730 mol∙L^−1 (printed as S × 10^2) | Solubility x × 10^3 ([2]; 1-Octanol, 308.15 K): 2.3729 mol. frac. (printed as x × 10^ | Solubility S × 10^2 ([2]; 1-Octanol, 313.15 K): 1.6045 mol∙L^−1 (printed as S × 10^2) | Solubility x × 10^3 ([2]; 1-Octanol, 313.15 K): 2.5979 mol. frac. (printed as x × 10^ | solubility at 2 days [2]: 12.3 mM (≈ 8110 µg/mL) | Solubility S × 10^4 ([2]; Buffer pH 2.0, 293.15 K): 6.3622 mol∙L^−1 (printed as S × 10^4) | Solubility x × 10^5 ([2]; Buffer pH 2.0, 293.15 K): 1.1474 mol. frac. (printed as x × 10^ | Solubility S × 10^4 ([2]; Buffer pH 2.0, 298.15 K): 6.7826 mol∙L^−1 (printed as S × 10^4) | Solubility x × 10^5 ([2]; Buffer pH 2.0, 298.15 K): 1.2247 mol. frac. (printed as x × 10^ | Solubility S × 10^4 ([2]; Buffer pH 2.0, 303.15 K): 7.1958 mol∙L^−1 (printed as S × 10^4) | Solubility x × 10^5 ([2]; Buffer pH 2.0, 303.15 K): 1.3013 mol. frac. (printed as x × 10^ | Solubility S × 10^4 ([2]; Buffer pH 2.0, 308.15 K): 7.5805 mol∙L^−1 (printed as S × 10^4) | Solubility x × 10^5 ([2]; Buffer pH 2.0, 308.15 K): 1.3731 mol. frac. (printed as x × 10^ | Solubility S × 10^4 ([2]; Buffer pH 2.0, 313.15 K): 7.9724 mol∙L^−1 (printed as S × 10^4) | Solubility x × 10^5 ([2]; Buffer pH 2.0, 313.15 K): 1.4468 mol. frac. (printed as x × 10^ | Solubility S × 10^5 ([2]; Buffer pH 7.4, 293.15 K): 5.8572 mol∙L^−1 (printed as S × 10^5) | Solubility x × 10^6 ([2]; Buffer pH 7.4, 293.15 K): 1.0651 mol. frac. (printed as x × 10^ | Solubility S × 10^5 ([2]; Buffer pH 7.4, 298.15 K): 6.7347 mol∙L^−1 (printed as S × 10^5) | Solubility x × 10^6 ([2]; Buffer pH 7.4, 298.15 K): 1.2262 mol. frac. (printed as x × 10^ | Solubility S × 10^5 ([2]; Buffer pH 7.4, 303.15 K): 7.7877 mol∙L^−1 (printed as S × 10^5) | Solubility x × 10^6 ([2]; Buffer pH 7.4, 303.15 K): 1.4201 mol. frac. (printed as x × 10^ | Solubility S × 10^5 ([2]; Buffer pH 7.4, 308.15 K): 8.9503 mol∙L^−1 (printed as S × 10^5) | Solubility x × 10^6 ([2]; Buffer pH 7.4, 308.15 K): 1.6349 mol. frac. (printed as x × 10^ | Solubility S × 10^5 ([2]; Buffer pH 7.4, 313.15 K): 10.2665 mol∙L^−1 (printed as S × 10^5) | Solubility x × 10^6 ([2]; Buffer pH 7.4, 313.15 K): 1.8788 mol. frac. (printed as x × 10^

Cc1ccc(-n2c(=S)sc3c(=O)n(CCCN4CCN(CC(O)(Cn5cncn5)c5ccc(F)cc5F)CC4)cnc32)cc1 (stereo not shown) [I, 6-[3-[4-[2-(2,4-difluorophenyl)-2-hydroxy-3-(1H-1,2,4-triazol-1-yl)propyl]-1-piperazinyl]propyl]-2,3-dihydro-3-(4-methylphenyl)-2-thioxo-thiazolo[4,5-d]pyrimidin-7(6H)-one]
MIC relative to the reference value (fluconazole) (C. glabrata 61L; C. glabrata 61L): four times less | MIC (C. glabrata 61L; 61L): 2 µg/mL (≈ 3.13 µM) | advantage over fluconazole ([1]; C. parapsilosis ATCC 22019): 4 fold | MIC ([1]; ATCC22019, 24 h): 0.5 µg/mL (≈ 0.783 µM) | MIC (C. utilis 84; Williopsis jadinii, 84, 24 h): 4 µg/mL (≈ 6.26 µM) | Solubility S × 10^3 ([2]; 1-Octanol, 293.15 K): 7.0781 mol∙L^−1 (printed as S × 10^3) | Solubility x × 10^3 ([2]; 1-Octanol, 293.15 K): 1.1199 mol. frac. (printed as x × 10^ | Solubility S × 10^3 ([2]; 1-Octanol, 298.15 K): 7.5389 mol∙L^−1 (printed as S × 10^3) | Solubility x × 10^3 ([2]; 1-Octanol, 298.15 K): 1.1981 mol. frac. (printed as x × 10^ | Solubility S × 10^3 ([2]; 1-Octanol, 303.15 K): 8.0826 mol∙L^−1 (printed as S × 10^3) | Solubility x × 10^3 ([2]; 1-Octanol, 303.15 K): 1.2903 mol. frac. (printed as x × 10^ | Solubility S × 10^3 ([2]; 1-Octanol, 308.15 K): 8.6264 mol∙L^−1 (printed as S × 10^3) | Solubility x × 10^3 ([2]; 1-Octanol, 308.15 K): 1.3835 mol. frac. (printed as x × 10^ | Solubility S × 10^3 ([2]; 1-Octanol, 313.15 K): 9.2070 mol∙L^−1 (printed as S × 10^3) | Solubility x × 10^3 ([2]; 1-Octanol, 313.15 K): 1.4834 mol. frac. (printed as x × 10^ | solubility at 2 days [2]: 7.54 mM (≈ 4820 µg/mL) | Solubility S × 10^3 ([2]; Buffer pH 2.0, 293.15 K): 1.8307 mol∙L^−1 (printed as S × 10^3) | Solubility x × 10^5 ([2]; Buffer pH 2.0, 293.15 K): 3.3040 mol. frac. (printed as x × 10^ | Solubility S × 10^3 ([2]; Buffer pH 2.0, 298.15 K): 1.9773 mol∙L^−1 (printed as S × 10^3) | Solubility x × 10^5 ([2]; Buffer pH 2.0, 298.15 K): 3.5732 mol. frac. (printed as x × 10^ | Solubility S × 10^3 ([2]; Buffer pH 2.0, 303.15 K): 2.1311 mol∙L^−1 (printed as S × 10^3) | Solubility x × 10^5 ([2]; Buffer pH 2.0, 303.15 K): 3.8570 mol. frac. (printed as x × 10^ | Solubility S × 10^3 ([2]; Buffer pH 2.0, 308.15 K): 2.3027 mol∙L^−1 (printed as S × 10^3) | Solubility x × 10^5 ([2]; Buffer pH 2.0, 308.15 K): 4.1749 mol. frac. (printed as x × 10^ | Solubility S × 10^3 ([2]; Buffer pH 2.0, 313.15 K): 2.4851 mol∙L^−1 (printed as S × 10^3) | Solubility x × 10^5 ([2]; Buffer pH 2.0, 313.15 K): 4.5144 mol. frac. (printed as x × 10^ | Solubility S × 10^4 ([2]; Buffer pH 7.4, 293.15 K): 1.1295 mol∙L^−1 (printed as S × 10^4) | Solubility x × 10^6 ([2]; Buffer pH 7.4, 293.15 K): 2.0541 mol. frac. (printed as x × 10^ | Solubility S × 10^4 ([2]; Buffer pH 7.4, 298.15 K): 1.2441 mol∙L^−1 (printed as S × 10^4) | Solubility x × 10^6 ([2]; Buffer pH 7.4, 298.15 K): 2.2653 mol. frac. (printed as x × 10^ | Solubility S × 10^4 ([2]; Buffer pH 7.4, 303.15 K): 1.3510 mol∙L^−1 (printed as S × 10^4) | Solubility x × 10^6 ([2]; Buffer pH 7.4, 303.15 K): 2.4636 mol. frac. (printed as x × 10^ | Solubility S × 10^4 ([2]; Buffer pH 7.4, 308.15 K): 1.4682 mol∙L^−1 (printed as S × 10^4) | Solubility x × 10^6 ([2]; Buffer pH 7.4, 308.15 K): 2.6820 mol. frac. (printed as x × 10^ | Solubility S × 10^4 ([2]; Buffer pH 7.4, 313.15 K): 1.5920 mol∙L^−1 (printed as S × 10^4) | Solubility x × 10^6 ([2]; Buffer pH 7.4, 313.15 K): 2.9135 mol. frac. (printed as x × 10^

— paper PMC9573696, “Experimental Examination of Solubility and Lipophilicity as Pharmaceutically Relevant Points of Novel Bioactive Hybrid Compounds” (Molecules, 2022)
